Legend:
Assay type in all cases: cell-based, human
KRAS 35G>A mutant G12D = assay: Indel frequencies at the endogenous target sequences (T7E1 / deep sequencing) after ADGN/Cas9 mRNA/gRNA transfection; conditions: for indel frequencies: deep sequencing, 72 hours after transfection, Cas9 mRNA 0.1 μg, gRNA 0.2 μg; for disruption of G12D mutant KRAS (FIG. 2A): G12D cancer cells vs wild type KRAS cells (HT29 or HS-68)
Description: (§1) Complex formation with mRNA:gRNA: ADGN peptide/mRNA/gRNA particles were prepared at a 20:1:1 molar ratio. ADGN/Cas9mRNA/sgRNA complexes were prepared at a 20/1/1 molar ratio with 0.5 μg mRNA: 1.5 μg sgRNA and 5% Glucose or DMEM (example for 96 well plates). […] Premixed Cas9 mRNA/gRNA were prepared in sterile water at room temperature in a glass vial (1-4 ml). ADGN-peptide solution was added dropwise (1 drop/sec) under magnetic agitation at 400 rpm to obtain a 1:2 ratio, and incubated for 30 min at room temperature or 37° C. Just before transfection, 150 μl Glucose or DMEM was added and the solution was mixed under magnetic agitation at 400 rpm for 1 minute. Then the solution was incubated for 5 min at 37° C. Then the complexes was ready for cell transfection or IV administration. Prior to IV administration, complexes were diluted in sucrose 5% solution.
(§2) Transfection protocol. The following protocols are reported for 24/48/96 well plate format transfection. Cells should be trypsinized and seeded a day prior transfection Cells were cultured in Dulbecco's Modified Eagle's Medium (DMEM), supplemented with 2 mM glutamine, 1% antibiotics (streptomycin 10,000 μg/mL, penicillin, 10,000 IU/mL) and 10% (w/v) foetal calf serum (FCS), at 37° C. in a humidified atmosphere containing 5% CO2. 96 well plates seeded with 50,000 cells, the day prior transfection, grown to 60-80% confluence and set up to be at around 70% confluence at the day of transfection. Before transfection, cells are washed twice with DMEM (without FBS and pen/strep) (100 μl/well). Cells were then overlaid with 25 μl of complex solution, mixed gently and incubated for 10 min at 37° C.+5% CO2. 50 μl of fresh DMEM (without FBS and Antibiotics) was added and cells were incubated for 2 h at 37° C.+5% CO2 (time of exposure can be adjusted based on sensitivity of the cells). 250 μL of DMEM (containing 10% FCS and 1% antibiotics) were then added without removing the overlay of ADGN peptide/mRNA complexes. Cells were returned to the incubator (37° C., 5% CO2) and analyzed 48 hours to 72 hours post transfection.
(§3) Nine different gRNAs targeting KRAS 35G>A mutant G12D (gRNA35A1, gRNA35A2, gRNA35A3, gRNA35A4, gRNA35A5, gRNA35A6; gRNA35A7, gRNA35A8, gRNA35A9) were evaluated on LS513, Panc1, PK-45H, and PK1 cancer cells harboring G12D KRAS mutation. Cas9 mRNA (0.1 μg) and gRNA (0.2 μg) were associated with ADGN-peptide at molar ratio 20/1 (peptide/nucleic acid). LS513, Panc1, PK-45H, PK1, HS-68 and HT-29 cells were cultured in 48 well plate format and treated with free mRNACas9-gRNA, or ADGN/mRNACas9:gRNA complex. Indel frequencies at the endogenous target sequences was evaluated 72 hours after transfection by either T7E1 method or deep sequencing. Cell proliferation was analyzed over a period of 5 days using CellTiter Glow kits on GlowMax (Promega).
(§4) In order to confirm the specificity of sgRNAs targeting G12V, G12C or G12D KRAS mutation, gRNA35T3 targeting G12V, gRNA34T6 targeting G12C, and gRNA35A5 targeting G12D were evaluated on a large panel of cancer cells harboring different KRAS mutations including SW403, SW480, PANC1, PK-45H, PK-1, MIA-PACA, H23, H358, HT-29, HS-68 and LS513. Cas9 mRNA (0.2 μg) and gRNA (0.4 μg) were associated with ADGN peptide at molar ratio 20/1 (peptide/nucleic acid). Cells were cultured in 48 well plate format and treated with free mRNACas9-gRNA, or ADGN/mRNACas9:gRNA complex. Indel frequencies at the endogenous target sequences was evaluated 72 hours after transfection by either T7E1 method and cell proliferation was analyzed over a period of 5 days using CellTiter Glow kits on GlowMax (Promega).

wild type KRAS = assay: as above; conditions: for indel frequencies: deep sequencing, 72 hours after transfection, Cas9 mRNA 0.1 μg, gRNA 0.2 μg
Description: as §1, §2
(§5) Nine different gRNAs targeting KRAS 35G>T mutant G12V (gRNA35T1, gRNA35T2, gRNA35T3, gRNA35T4, gRNA35T5, gRNA35T6, gRNA35T7, gRNA35T8 and gRNA35T9 (see FIG. 18)) were evaluated on SW403 and SW480 cancer cells harboring G12V KRAS mutation. Cas9 mRNA (0.15 μg) and gRNA (0.2 μg) were associated with ADGN-peptides as reported in experimental procedure. SW403, SW480 and HT-29 cells were cultured in 48 well plate format and treated with free mRNACas9-gRNA, or ADGN-100/mRNACas9:gRNA complex. Indel frequencies at the endogenous target sequences was evaluated 72 hours after transfection by either T7E1 method and by deep sequencing. Cell proliferation was analyzed over a period of 5 days using CellTiter Glow kits on GlowMax (Promega).
as §3

KRAS 34G>T mutant G12C = assay: as above; conditions: Mia-PACA, H23, H358 vs HT29 and PANC1 cells
Description: as §1, §2
Eight different gRNAs targeting KRAS 34G>T mutant G12C (gRNA34T1, gRNA34T2, gRNA34T3, gRNA34T4, gRNA34T5, gRNA34T6, gRNA34T7 and gRNA34T8) were evaluated on MIA-PACA, H23, H358, H29 and PANC1 cells. Cas9 mRNA (0.1 μg) and gRNA (0.2 μg) were associated with ADGN peptide at molar ratio 20/1 (peptide/nucleic acid). MIA-PACA, H23, H358, PANC1 and HT29 cells were cultured in 48 well plate format and treated with free mRNACas9-gRNA, or ADGN/mRNACas9:gRNA complex. Indel frequencies at the endogenous target sequences was evaluated 72 hours after transfection by either T7E1 method or deep sequencing. Cell proliferation was analyzed over a period of 5 days using CellTiter Glow kits on GlowMax (Promega).
as §4

[1] = tested on: PANC1, PK1, LS513 and PK-45H cells; assay: Cell proliferation over 5 days (CellTiter Glow); conditions: PANC1, PK1, LS513, PK-45H vs HT29 or HS-68 cells harboring KRAS WT
Description: as §2, §3

KRAS 35G>T mutant G12V = assay: Indel frequencies at the endogenous target sequences (T7E1 / deep sequencing) after ADGN/Cas9 mRNA/gRNA transfection; conditions: SW403, SW480 vs wild type KRAS HT29 cells; T7E1
Description: as §1, §2, §5, §4

Row | Sequence | indel frequencies (KRAS 35G>A mutant G12D; LS513 cells) [%] | indel frequencies (KRAS 35G>A mutant G12D; PANC1 cells) [%] | indel frequencies (KRAS 35G>A mutant G12D; PK1 cells) [%] | indel frequencies (KRAS 35G>A mutant G12D; PK-45H cells) [%] | indel frequencies (wild type KRAS; HS68 cells (WT KRAS)) [%] | indel frequencies (wild type KRAS; HT-29 cells (WT KRAS)) [%] | indel editing and disruption of G12C mutant KRAS (FIG. 3A) (KRAS 34G>T mutant G12C) | effect on wild type KRAS cells (wild type KRAS; HT-29 and HS-68 cells) | inhibition of proliferation or survival (FIG. 2B) [1] | disruption of G12D mutant KRAS (FIG. 2A) (KRAS 35G>A mutant G12D) | indel editing and disruption of G12V mutant KRAS (FIG. 1A) (KRAS 35G>T mutant G12V)
1 | AGC TGA TGG CGT AGG CAA (guide AGCTGATGGCGTAGGCAA; chemistry not given here) [gRNA35A3, sgRNA target KRAS G12D mutation (35G>A); PAM GAG] | 9 ± 1 | 7 ± 1 | 2 ± 0.5 | 4 ± 1 | 4 ± 1 | 1 ± 0.5 | – | – | – | – | –
2 | AGC TTG TGG CGT AGG CAA (guide AGCTTGTGGCGTAGGCAA; chemistry not given here) [gRNA34T2, sgRNA target KRAS G12C mutation (34G>T); PAM GAG] | – | – | – | – | – | – | inefficient or less specific affecting wild type KRAS | – | – | – | –
3 | CTT GTG GCG TAG GCA AGAGT (guide CTTGTGGCGTAGGCAAGAGT; sgRNA, chemical modifications not given here, further chemistry not given here) [gRNA34T8, sgRNA target KRAS G12C mutation (34G>T); PAM GCC] | – | – | – | – | – | – | inefficient or less specific affecting wild type KRAS | – | – | – | –
4 | CTTGTGGTAGTTGGAGCTGA (guide CTTGTGGTAGTTGGAGCTGA; chemistry not given here) [gRNA35A1, sgRNA target KRAS G12D mutation (35G>A); PAM TGG] | 17 ± 2 | 32 ± 2 | 12 ± 1 | 15 ± 0.8 | 8 ± 1 | 10 ± 1 | – | also affected wild type KRAS cells | specifically inhibit proliferation or survival of PANC1, PK1, LS513 and PK-45H cells | – | –
5 | GCT GAT GGC GTA GGC AA (guide GCTGATGGCGTAGGCAA; chemistry not given here) [gRNA35A9, sgRNA target KRAS G12D mutation (35G>A); PAM GAG] | 21 ± 3 | 25 ± 3 | 34 ± 1 | 18 ± 2 | 12 ± 1 | 17 ± 3 | – | – | – | induced efficient disruption of G12D mutant KRAS | –
6 | GCT TGT GGC GTA GGC AA (guide GCTTGTGGCGTAGGCAA; sgRNA, chemical modifications not given here, further chemistry not given here) [gRNA34T7, sgRNA target KRAS G12C mutation (34G>T); PAM GAG] | – | – | – | – | – | – | inefficient or less specific affecting wild type KRAS | – | – | – | –
7 | GGTAGTTGGAGCTGATGGCG (guide GGTAGTTGGAGCTGATGGCG; chemistry not given here) [gRNA35A2, sgRNA target KRAS G12D mutation (35G>A); PAM TAG] | 31 ± 2 | 58 ± 4 | 48 ± 2 | 52 ± 5 | 6 ± 2 | 2 ± 1 | – | – | specifically inhibit proliferation or survival of PANC1, PK1, LS513 and PK-45H cells | induced efficient disruption of G12D mutant KRAS | –
8 | GGTAGTTGGAGCTTGTGGCG (guide GGTAGTTGGAGCTTGTGGCG; chemistry not given here) [gRNA34T4, sgRNA target KRAS G12C mutation (34G>T); PAM TAG] | – | – | – | – | – | – | inefficient or less specific affecting wild type KRAS | – | – | – | –
9 | TGA TGG CGT AGG CAA GAGT (guide TGATGGCGTAGGCAAGAGT; chemistry not given here) [gRNA35A4, sgRNA target KRAS G12D mutation (35G>A); PAM GCC] | 5 ± 2 | 4 ± 1 | 9 ± 0.1 | 7 ± 2 | 5 ± 0.7 | 2 ± 1 | – | – | – | – | –
10 | TTG TGG TAG TTG GAG CTG A (guide TTGTGGTAGTTGGAGCTGA; chemistry not given here) [gRNA35A8, sgRNA target KRAS G12D mutation (35G>A); PAM TGG] | 7 ± 1 | 9 ± 2 | 18 ± 1 | 11 ± 1 | 6 ± 0.1 | 2 ± 0.2 | – | – | – | – | –
11 | TTG TGG TAG TTG GAG CTG T (guide TTGTGGTAGTTGGAGCTGT; chemistry not given here) [gRNA35T7, sgRNA target KRAS G12V mutation (c.35G>T); PAM TGG] | – | – | – | – | – | – | – | – | – | – | specifically induced indel editing and efficient disruption

— patent US20230167437A1, “COMPOSITIONS FOR TREATING CANCER WITH KRAS MUTATIONS AND USES THEREOF” (Aadigen, LLC, priority 2020, published 2023)
